In patent US20220296583A1, “COMPOSITIONS AND METHODS FOR TREATMENT OF OVARIAN AND BREAST CANCER” (Board of Regents, The University of Texas System, priority 2021, published 2022):

Columns and labels:
[1] = system: HDAC4 (Ser246)/HDAC5 (Ser256)/HDAC7 (Ser155); experiment: Western analysis of HDAC4/5/7 phosphorylation; assay type: cell-based; settings: 4 μM, 24 hrs; nearly all the cell lines tested
Protocol: To identify the mechanism(s) by which SIK2 inhibition decreases DNA DBS repair, it was tested whether SIK2 inhibitors decrease the phosphorylation of class IIa HDACs, which control its nuclear cytoplasmic shuttling and consequently its association with DNA. […] Next, it was investigated whether SIK2 inhibitors increase nuclear localization of HDAC5. SIK2 inhibition increased nuclear localization of HDAC5 judged by increasing nuclear florescence intensity (FIG. 7B and FIG. 8A) and the nuclear fraction of HDAC5 expression (FIG. 8B). […] Therefore, it was hypothesized that SIK2 inhibition may block MEF transcription factor activity. […] Next, it was examined whether SIK2 regulation of MEF2 activity was HDAC4/5-dependent, increasing its binding to MEF2D protein. […] These observations are consistent with the hypothesis that SIK2 inhibition increases nuclear localization of HDAC4/5, blocking MEF2 transcription (FIG. 8E).
Cells were incubated with and without treatment for the intervals indicated and then cells were incubated in lysis buffer (50 mM Hepes, pH 7.0, 150 mM NaCl, 1.5 mM MgCl2, 1 mM EGTA, 10, 10% glycerol, 1% Triton X-100, 50 mM NaF, 1 mM Na3VO4 1 mM PMSF, 10 μg/mL leupeptin and10 μg/mL aprotinin) on ice for 30 min. […] The protein concentration was assessed using a bicinchoninic acid (BCA) protein assay (Thermo Scientific, 23228). […]

survivin = experiment: Survivin expression by western blot; assay type: cell-based; settings: OC316 and OVCAR8; 48 h
Protocol: Cell lysates were collected and survivin expression was measured by western blot analysis. The experiments were performed three times individually. Densitometry values were determined by Image J shareware (NIH) and normalized to the GAPDH loading control. The values relative to the untreated group were plotted at the bottom.
Cells were incubated for 24-48 h with and without treatments and then harvested for western blot analysis. Briefly, cells were incubated in lysis buffer for 20 min on ice and centrifuged at 17,000×g for 10 min at 4° C. Protein concentration of cell lysates was determined with BCA reagent (Thermo Fisher Scientific, Houston, Tex., USA). Lysates were separated on 8-16% SDS-PAGE and transferred to polyvinylidene difluoride (PVDF) membranes. Immunoblots were probed with anti-survivin antibody (Novus; 1:2000, Centennial CO, USA) in 5% BSA overnight at 4° C. and HRP labeled secondary antibody was added for 1 h at RT. The signal was developed on X-ray films.
Many current cancer chemotherapies, including platinum-based drugs, exert their antitumor effect by triggering apoptosis in cancer cells. […] The inhibitor of apoptosis protein family (IAPs) includes an important group of proteins involved in the regulation of apoptosis. One member of this protein family, survivin, plays an important role in promoting tumor progression by deregulating apoptosis and cell division.

SIK1 = SIK1 (Homo sapiens, UniProt P57059); experiment: SIK isoform dose response; assay type: biochemical
Sequence of SIK1 (P57059 whole entry, canonical isoform): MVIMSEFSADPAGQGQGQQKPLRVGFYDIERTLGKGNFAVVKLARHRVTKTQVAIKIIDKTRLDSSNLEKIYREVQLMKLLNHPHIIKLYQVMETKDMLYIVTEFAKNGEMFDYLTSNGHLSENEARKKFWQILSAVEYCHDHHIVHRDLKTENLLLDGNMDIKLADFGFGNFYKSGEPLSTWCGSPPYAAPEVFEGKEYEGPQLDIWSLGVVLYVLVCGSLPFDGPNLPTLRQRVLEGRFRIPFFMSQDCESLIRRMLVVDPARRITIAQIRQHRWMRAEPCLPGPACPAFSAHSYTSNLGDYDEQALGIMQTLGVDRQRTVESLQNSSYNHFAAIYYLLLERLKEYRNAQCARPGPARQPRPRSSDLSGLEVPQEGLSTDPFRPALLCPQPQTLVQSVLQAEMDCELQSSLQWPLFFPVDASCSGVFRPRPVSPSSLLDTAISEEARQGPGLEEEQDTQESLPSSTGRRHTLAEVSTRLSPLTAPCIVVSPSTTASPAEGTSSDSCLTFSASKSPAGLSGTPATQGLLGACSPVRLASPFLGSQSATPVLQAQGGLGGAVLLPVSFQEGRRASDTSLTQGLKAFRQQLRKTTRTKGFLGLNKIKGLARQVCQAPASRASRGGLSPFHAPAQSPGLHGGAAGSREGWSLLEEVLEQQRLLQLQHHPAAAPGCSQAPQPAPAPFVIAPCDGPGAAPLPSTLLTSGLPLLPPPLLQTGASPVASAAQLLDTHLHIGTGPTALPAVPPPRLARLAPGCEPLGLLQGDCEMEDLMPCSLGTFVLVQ

[2] = system: SKOv3, OVCAR8, HCC5032, or MDA-MB-231 cells; experiment: DNA damage: γ-H2AX staining and comet assay with olaparib; assay type: cell-based; settings: SKOv3, OVCAR8, HCC5032, MDA-MB-231
Protocol: Cells were trypsinized and resuspended at 2×10^5/mL in cold PBS without Ca^2+ and Mg^2+. Cells were mixed with pre-warmed comet agarose at 1:10 (v/v) ratio. 10 uL of cell agarose mixture was plated onto comet slides pre-coated with 75 uL of agarose and chilled at 4° C. for 15 min to set. Cells were lysed in 25 mL of Lysis buffer at 4° C. for 2 hrs and washed with alkaline solution (pH 10). Comet slides were electrophoresed in cold alkaline solution at 20V for 15 min. Slides were rinsed with water and dried in 70% ethanol for 5 min. Slides were then stained with Vista Green DNA dye and viewed using an Olympus epifluorescence microscope with a FITC filter. Images were captured using a 20× objective. […] Experiments were run in triplicate and Olive Tail Moment was measured using CaspLab1.2.3β2 software (CaspLab.com). Olive Tail Moment=Tail DNA %×Tail Length. 50-200 Cells were measured for each treatment and experiments were repeated twice independently to ensure reproducibility.
Cells on 22×22 mm coverslips were fixed in 4% formaldehyde in PBS (Thermo Fisher, J19943-K2) and permeabilized with 0.1% Triton X-100 (Sigma, X100) in PBS for 15 min. Cells were blocked with 5% BSA in PBS for 30 min and then stained with antibody overnight at 4° C., followed by secondary antibody and DAPI for 1 hr. […] After 24-hrs incubation, cells were fixed in 4% formaldehyde in PBS. Cells were stained as described above. […] DNA damage visualized by γ-H2AX staining was evaluated by counting nuclear γ-H2AX puncta in each cell. […] After 8 hrs incubation, cells were fixed in 4% formaldehyde in PBS. Cells were stained as described above. Images were captured using an Olympus IX71 microscope and nuclear γ-H2AX puncta in each cells were counted using with Olympus CellSens Dimension software. HDAC5 (CST20458) and γ-H2AX (CST2577) antibodies were purchased from Cell Signaling Technology. Experiments were repeated twice independently to ensure reproducibility and 50-200 cells were counted for each treatment.

[3] = system: OVCAR8, SKOv3, and OC316 ovarian cancer cell lines; experiment: γ-H2AX punctae and comet assay, Compound B and carboplatin; settings: 24 h
[4] = system: OVCAR8, SKOv3, OC316, MDA4772 and ES2 ovarian cancer cell lines; experiment: Clonogenic survival assay, Compound B and carboplatin; assay type: cell-based; settings: 12-14 days; five cell lines
Protocol: Cell viability was measured with a bioluminescence assay as described in the Examples, and IC50 values were calculated. (B) Sensitivity to carboplatin. Eight ovarian cancer cell lines were treated as above with different concentrations of carboplatin as indicated. […] The drug concentration ratio is indicated in each plot. The combination index at 50% growth inhibition was calculated using CalcuSyn software. (E) Effect of SIK2 knockout on the carboplatin dose response curve. Cells were treated with different concentrations of carboplatin as indicated. IC50 values for (A-C, E) were calculated by GraphPad Prism 8. […] Four hundred OVCAR8 or SKOv3 ovarian cancer cells were seeded in 6-well plates in culture medium for 24 h. […] The graphs indicate the mean colony formation numbers with standard deviations.
Cancer cells were seeded in 6-well plates at a density of 400 cells per well in culture medium for 24 h to permit cell adherence. […] After control colonies had grown to include at least 50 cells, cultures were fixed and stained with Coomassie blue (0.1% Coomassie brilliant blue R-250, 40% methanol, and 10% acetic acid) and counted. Colonies were counted from three independent experiments and the mean number of colonies and standard deviations calculated. Multiplicity adjusted p values for each treatment and control were determined.

[5] = system: OVCAR8, SKOv3, OC316, OVCAR3, ES2, A2780, MDA2774, and IGROV1 cells; experiment: Short term cell proliferation (CellTiter-Glo), eight ovarian cancer cell lines; assay type: cell-based, human; settings: single concentration of Compound B 0.75-1.25 μM; p<0.01
Protocol: Cells were seeded in 6 replicates in black-walled and clear-bottomed 96-well plates and incubated overnight. […] The CellTiter-Glo luminescent cell viability assay (Promega) was used to evaluate the effect of treatment on cancer growth. This experiment was performed several times to optimize the concentration. […] GraphPad Prism 8 was used to generate growth curves and calculated IC50. CalcuSyn was used to evaluate additive or synergistic interactions, a combination Index (CI value).

[6] = system: MDA-MB-231 orthotopic xenografts; experiment: MDA-MB-231 orthotopic xenografts; assay type: in vivo, mice
Protocol: To evaluate additive or synergistic interactions, a combination Index (CI value) was calculated with CalcuSyn software.

Question: Which “phosphorylation of HDAC4/HDAC5/HDAC7” value [1] does the source give for `COc1c(F)cc(F)cc1-c1c[nH]c2ncc(-c3cnn(C4CCN(S(C)(=O)=O)CC4)c3)cc12` [Compound B, 3-(3,5-difluoro-2-methoxyphenyl)-5-(1-(1-(methylsulfonyl)piperidin-4-yl)-1H-pyrazol-4-yl)-1H-pyrrolo[2,3-b]pyridine] here?
Answer: significantly decreased

Question: And the survivin expression (survivin)?
Answer: downregulation of survivin

Question: What about the IC50 (SIK1) of the same compound?
Answer: 351 nM

Question: And the “levels of γ-H2AX and tailed DNA” value [2]?
Answer: modestly increased

Question: What about the “comet tail moment induced with carboplatin” value [3] of the same compound?
Answer: further enhanced

Question: What about the clonogenic survival [4] of the same compound?
Answer: significantly enhanced carboplatin induced loss of clonogenic survival

Question: And the “carboplatin dose response curve when Compound B was added” value [5]?
Answer: shifted to the left in seven of eight ovarian cancer cell lines

Question: What about the “xenograft growth and survival” value [6] of the same compound?
Answer: inhibited xenograft growth and prolonged the survival
